Experimental data as given in publication PMC6979384, “Characterization of the plant homeodomain (PHD) reader family for their histone tail interactions” (Epigenetics & Chromatin, 2020).

How the values were obtained:
Experiment in all cases: Histone peptide microarray
Format in all cases: binding, human
BAZ2B = conditions: BAZ2B; sheet "Array Heatmap"; each array performed twice, total n = 4
How it was run: (§1)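 Using an optimized microarray protocol, purified GST-tagged PHD fingers were incubated at 0.5 μM on 293 histone peptides with single or multiple modifications, and array signal was recorded as the average of 4 replicates.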

PHF2 = conditions: PHF2; sheet "Array Heatmap"; each array performed twice, total n = 4
How it was run: as §1

DPF2 (PPC2W2) = conditions: DPF2 (PPC2W2); sheet "Array Heatmap"; each array performed twice, total n = 4
How it was run: as §1

MORC3 (CW) = conditions: MORC3 (CW); sheet "Array Heatmap"; each array performed twice, total n = 4
How it was run: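 Steps: express and purify GST-tagged PHD reader; incubate 0.5 μM protein on a peptide microarray (293 histone peptides, single or combined PTMs) following an optimized protocol; average signal across 4 replicates.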

MLL5 = conditions: MLL5; sheet "Array Heatmap"; each array performed twice, total n = 4
How it was run: as §1

PHRF1 (RP) = conditions: PHRF1 (RP); sheet "Array Heatmap"; each array performed twice, total n = 4
How it was run: as §1

TRIM66 (PB) = conditions: TRIM66 (PB); sheet "Array Heatmap"; each array performed twice, total n = 4
How it was run: as §1

PHF8 = conditions: PHF8; sheet "Array Heatmap"; each array performed twice, total n = 4
How it was run: as §1

CHD5 (PCC) = conditions: CHD5 (PCC); sheet "Array Heatmap"; each array performed twice, total n = 4
How it was run: as §1

PHF23 = conditions: PHF23; sheet "Array Heatmap"; each array performed twice, total n = 4
How it was run: as §1

ING1 = conditions: ING1; sheet "Array Heatmap"; each array performed twice, total n = 4
How it was run: as §1

PHF21A = conditions: PHF21A; sheet "Array Heatmap"; each array performed twice, total n = 4
How it was run: as §1

PHF13 = conditions: PHF13; sheet "Array Heatmap"; each array performed twice, total n = 4
How it was run: as §1

ING2 = conditions: ING2; sheet "Array Heatmap"; each array performed twice, total n = 4
How it was run: as §1

CHD4 (PPCC) = conditions: CHD4 (PPCC); sheet "Array Heatmap"; each array performed twice, total n = 4
How it was run: as §1

DIDO1 = conditions: DIDO1; sheet "Array Heatmap"; each array performed twice, total n = 4
How it was run: as §1

CHD5 (PPCC) = conditions: CHD5 (PPCC); sheet "Array Heatmap"; each array performed twice, total n = 4
How it was run: as §1

BPTF (PB) = conditions: BPTF (PB); sheet "Array Heatmap"; each array performed twice, total n = 4
How it was run: as §1

KDM4C (TTP) = conditions: KDM4C (TTP); sheet "Array Heatmap"; each array performed twice, total n = 4
How it was run: as §1

KDM5B (3) = conditions: KDM5B (3); sheet "Array Heatmap"; each array performed twice, total n = 4
How it was run: as §1

SP140L = conditions: SP140L; sheet "Array Heatmap"; each array performed twice, total n = 4
How it was run: as §1

ING4 = conditions: ING4; sheet "Array Heatmap"; each array performed twice, total n = 4
How it was run: as §1

AIRE (PP) = conditions: AIRE (PP); sheet "Array Heatmap"; each array performed twice, total n = 4
How it was run: as §1

KDM5A (1) = conditions: KDM5A (1); sheet "Array Heatmap"; each array performed twice, total n = 4
How it was run: as §1

KDM5B (1) = conditions: KDM5B (1); sheet "Array Heatmap"; each array performed twice, total n = 4
How it was run: as §1

ING5 = conditions: ING5; sheet "Array Heatmap"; each array performed twice, total n = 4
How it was run: as §1

KDM5A (3) = conditions: KDM5A (3); sheet "Array Heatmap"; each array performed twice, total n = 4
How it was run: as §1

KDM7A = conditions: KDM7A; sheet "Array Heatmap"; each array performed twice, total n = 4
How it was run: as §1

RAG2 = conditions: RAG2; sheet "Array Heatmap"; each array performed twice, total n = 4
How it was run: as §1

TAF3 = conditions: TAF3; sheet "Array Heatmap"; each array performed twice, total n = 4
How it was run: as §1

ING3 = conditions: ING3; sheet "Array Heatmap"; each array performed twice, total n = 4
How it was run: as §1

| Substance | Array Heatmap value (peptide array signal) (BAZ2B) | Array Heatmap value (peptide array signal) (PHF2) | Array Heatmap value (peptide array signal) (DPF2 (PPC2W2)) | Array Heatmap value (peptide array signal) (MORC3 (CW)) | Array Heatmap value (peptide array signal) (MLL5) | Array Heatmap value (peptide array signal) (PHRF1 (RP)) | Array Heatmap value (peptide array signal) (TRIM66 (PB)) | Array Heatmap value (peptide array signal) (PHF8) | Array Heatmap value (peptide array signal) (CHD5 (PCC)) | Array Heatmap value (peptide array signal) (PHF23) | Array Heatmap value (peptide array signal) (ING1) | Array Heatmap value (peptide array signal) (PHF21A) | Array Heatmap value (peptide array signal) (PHF13) | Array Heatmap value (peptide array signal) (ING2) | Array Heatmap value (peptide array signal) (CHD4 (PPCC)) | Array Heatmap value (peptide array signal) (DIDO1) | Array Heatmap value (peptide array signal) (CHD5 (PPCC)) | Array Heatmap value (peptide array signal) (BPTF (PB)) | Array Heatmap value (peptide array signal) (KDM4C (TTP)) | Array Heatmap value (peptide array signal) (KDM5B (3)) | also measured |
| --- | --- | --- | --- | --- | --- | --- | --- | --- | --- | --- | --- | --- | --- | --- | --- | --- | --- | --- | --- | --- | --- |
| H4K5butK8butK12but: H4 1-23 | 0.414 | 0.5429 | 0.6505 | 0.3355 | 0.5293 | 0.4335 | 0.5547 | 0.3282 | 0.661 | 0.5206 | 0.5532 | 0.3738 | 0.5714 | 0.5892 | 0.5302 | 0.6712 | 0.5134 | 0.3272 | 0.4273 | 0.4196 | Array Heatmap value (peptide array signal) (SP140L): 0.3551; Array Heatmap value (peptide array signal) (ING4): 0.4352; Array Heatmap value (peptide array signal) (AIRE (PP)): 0.3828; Array Heatmap value (peptide array signal) (KDM5A (1)): 0.419; Array Heatmap value (peptide array signal) (KDM5B (1)): 0.5776; Array Heatmap value (peptide array signal) (ING5): 0.3275; Array Heatmap value (peptide array signal) (KDM5A (3)): 0.4238; Array Heatmap value (peptide array signal) (KDM7A): 0.3032; Array Heatmap value (peptide array signal) (RAG2): 0.2246; Array Heatmap value (peptide array signal) (TAF3): 0.2569; Array Heatmap value (peptide array signal) (ING3): 0.4441 |
| H4K5crK8crK12cr: H4 1-23 | 0.3353 | 0.4485 | 0.6037 | 0.2832 | 0.4572 | 0.3292 | 0.525 | 0.292 | 0.6269 | 0.4763 | 0.4798 | 0.3861 | 0.5013 | 0.5899 | 0.5037 | 0.571 | 0.4173 | 0.277 | 0.3678 | 0.4017 | Array Heatmap value (peptide array signal) (SP140L): 0.3203; Array Heatmap value (peptide array signal) (ING4): 0.3713; Array Heatmap value (peptide array signal) (AIRE (PP)): 0.3482; Array Heatmap value (peptide array signal) (KDM5A (1)): 0.3568; Array Heatmap value (peptide array signal) (KDM5B (1)): 0.5237; Array Heatmap value (peptide array signal) (ING5): 0.2562; Array Heatmap value (peptide array signal) (KDM5A (3)): 0.3558; Array Heatmap value (peptide array signal) (KDM7A): 0.2744; Array Heatmap value (peptide array signal) (RAG2): 0.2029; Array Heatmap value (peptide array signal) (TAF3): 0.2134; Array Heatmap value (peptide array signal) (ING3): 0.3926 |
